In patent publication US12077503B2, “Substituted cyclic amides and their use as herbicides” (FMC CORPORATION, priority 2015, dated 2024):

Assays:
Format in all cases: in vivo
[1] = test system: giant foxtail (Setaria faberi); assay: Test G Post-Emergence Protocol; details: Setaria faberi, post-emergence, 312 h
Outline: (§1)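 Pot-grown seedlings, 8 days old, raised in a glasshouse at 24/16 °C day/night with 14 h light and 65% humidity, were sprayed post-emergence with test compound in acetone/water (50:50) plus 0.5% Tween 20 at 15.625, 62.5 or 250 g/ha. Damage was scored visually 13 days later on a 0–100 scale (100 = total damage).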

[2] = test system: barnyardgrass (Echinochloa crus-galli); assay: Test G Post-Emergence Protocol; details: Echinochloa crus-galli, post-emergence, 312 h
Outline: as §1

[3] = test system: velvetleaf (Abutilon theophrasti); assay: Test G Post-Emergence Protocol; details: Abutilon theophrasti, post-emergence, 312 h
Outline: as §1

[4] = test system: redroot pigweed (Amaranthus retroflexus); assay: Test G Post-Emergence Protocol; details: Amaranthus retroflexus, post-emergence, 312 h
Outline: as §1

[5] = test system: ivy-leaved morning glory (Ipomoea hederacea); assay: Test G Post-Emergence Protocol; details: Ipomoea, post-emergence, 312 h
Outline: as §1

corn (Zea mays) [6] = assay: Test G Post-Emergence Protocol; details: Zea mays, post-emergence, 312 h
Outline: as §1

[7] = test system: giant foxtail (Setaria faberi); assay: Test G Pre-Emergence Protocol; details: Setaria faberi, pre-emergence, 312 h, evaluated after 13 days
Outline: (§2)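 Under a 24/16° C day/night regime with 14 h light and 65% humidity, sown pots were sprayed after one day with compound (15.625, 62.5 or 250 g/ha; 50:50 acetone/water, 0.5% Tween 20). Damage was assessed visually 13 days later, 0 to 100.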

[8] = test system: barnyardgrass (Echinochloa crus-galli); assay: Test G Pre-Emergence Protocol; details: Echinochloa crus-galli, pre-emergence, 312 h, evaluated after 13 days
Outline: as §2

[9] = test system: velvetleaf (Abutilon theophrasti); assay: Test G Pre-Emergence Protocol; details: Abutilon theophrasti, pre-emergence, 312 h, evaluated after 13 days
Outline: as §2

[10] = test system: redroot pigweed (Amaranthus retroflexus); assay: Test G Pre-Emergence Protocol; details: Amaranthus retroflexus, pre-emergence, 312 h, evaluated after 13 days
Outline: as §2

[11] = test system: ivy-leaved morning glory (Ipomoea hederacea); assay: Test G Pre-Emergence Protocol; details: Ipomoea, pre-emergence, 312 h, evaluated after 13 days
Outline: as §2

corn (Zea mays) [12] = assay: Test G Pre-Emergence Protocol; details: Zea mays, pre-emergence, 312 h, evaluated after 13 days
Outline: as §2

Question: `Cc1c(F)ccc(NC(=O)[C@@H]2C(=O)N(C)C[C@H]2c2ccc(C(F)(F)F)cc2)c1F` (racemic) [Compound 1629] was tested. Which pest or weed control at 15.625 g/ha ([1]; 15.625 g ai/ha, evaluated after 13 days (100=total damage to plant; 0=no damage to plant), read-out: Foxtail, Giant damage rating) did it give?
Answer: 0%

Question: What about the pest or weed control at 62.5 g/ha ([1]; 62.5 g ai/ha, evaluated after 13 days, read-out: Foxtail, Giant damage rating (100=total damage to plant; 0=no damage to plant)) of the same compound?
Answer: 80%

Question: What about the pest or weed control at 250 g/ha ([1]; 250 g ai/ha, evaluated after 13 days, read-out: damage to plant, Foxtail, Giant (100=total damage to plant; 0=no damage to plant)) of the same compound?
Answer: 80%

Question: And the pest or weed control at 15.625 g/ha ([2]; 15.625 g ai/ha, evaluated after 13 days (100=total damage to plant; 0=no damage to plant), read-out: Barnyardgrass damage rating)?
Answer: 0%

Question: And the pest or weed control at 62.5 g/ha ([2]; 62.5 g ai/ha, evaluated after 13 days, read-out: Barnyardgrass damage rating (100=total damage to plant; 0=no damage to plant))?
Answer: 30%

Question: What about the pest or weed control at 250 g/ha ([2]; 250 g ai/ha, evaluated after 13 days, read-out: damage to plant, Barnyardgrass (100=total damage to plant; 0=no damage to plant)) of the same compound?
Answer: 70%

Question: What about the pest or weed control at 15.625 g/ha ([3]; 15.625 g ai/ha, evaluated after 13 days (100=total damage to plant; 0=no damage to plant), read-out: Velvetleaf damage rating) of the same compound?
Answer: 20%

Question: And the pest or weed control at 62.5 g/ha ([3]; 62.5 g ai/ha, evaluated after 13 days, read-out: Velvetleaf damage rating (100=total damage to plant; 0=no damage to plant))?
Answer: 10%

Question: And the pest or weed control at 250 g/ha ([3]; 250 g ai/ha, evaluated after 13 days, read-out: damage to plant, Velvetleaf (100=total damage to plant; 0=no damage to plant))?
Answer: 0%

Question: What about the pest or weed control at 15.625 g/ha ([4]; 15.625 g ai/ha, evaluated after 13 days (100=total damage to plant; 0=no damage to plant), read-out: Pigweed, Redroot damage rating) of the same compound?
Answer: 10%

Question: What about the pest or weed control at 62.5 g/ha ([4]; 62.5 g ai/ha, evaluated after 13 days, read-out: Pigweed, Redroot damage rating (100=total damage to plant; 0=no damage to plant)) of the same compound?
Answer: 10%

Question: And the pest or weed control at 250 g/ha ([4]; 250 g ai/ha, evaluated after 13 days, read-out: damage to plant, Pigweed, Redroot (100=total damage to plant; 0=no damage to plant))?
Answer: 30%

Question: And the pest or weed control at 15.625 g/ha ([5]; 15.625 g ai/ha, evaluated after 13 days (100=total damage to plant; 0=no damage to plant), read-out: Morningglory, Ivy-leaved damage rating)?
Answer: 20%

Question: What about the pest or weed control at 62.5 g/ha ([5]; 62.5 g ai/ha, evaluated after 13 days, read-out: Morningglory, Ivy-leaved damage rating (100=total damage to plant; 0=no damage to plant)) of the same compound?
Answer: 20%

Question: What about the pest or weed control at 250 g/ha ([5]; 250 g ai/ha, evaluated after 13 days, read-out: damage to plant, Morningglory, Ivy-leaved (100=total damage to plant; 0=no damage to plant)) of the same compound?
Answer: 30%

Question: What about the plant injury at 15.625 g/ha (corn (Zea mays) [6]; 15.625 g ai/ha, evaluated after 13 days (100=total damage to plant; 0=no damage to plant), read-out: Corn damage rating) of the same compound?
Answer: 0%

Question: And the plant injury at 62.5 g/ha (corn (Zea mays) [6]; 62.5 g ai/ha, evaluated after 13 days, read-out: Corn damage rating (100=total damage to plant; 0=no damage to plant))?
Answer: 10%

Question: And the plant injury at 250 g/ha (corn (Zea mays) [6]; 250 g ai/ha, evaluated after 13 days, read-out: damage to plant, Corn (100=total damage to plant; 0=no damage to plant))?
Answer: 10%

Question: What about the pest or weed control at 15.625 g/ha ([7]; 15.625 g ai/ha, read-out: Foxtail, Giant damage rating (100=total damage to plant; 0=no damage to plant)) of the same compound?
Answer: 30%

Question: What about the pest or weed control at 62.5 g/ha ([7]; 62.5 g ai/ha, 100=total damage to plant, 0=no damage to plant, read-out: plant damage rating, Foxtail, Giant) of the same compound?
Answer: 50%

Question: What about the pest or weed control at 250 g/ha ([7]; 250 g ai/ha, read-out: Foxtail, Giant damage rating (100=total damage to plant; 0=no damage to plant)) of the same compound?
Answer: 80%

Question: And the pest or weed control at 15.625 g/ha ([8]; 15.625 g ai/ha, read-out: Barnyard grass damage rating (100=total damage to plant; 0=no damage to plant))?
Answer: 10%

Question: And the pest or weed control at 62.5 g/ha ([8]; 62.5 g ai/ha, 100=total damage to plant, 0=no damage to plant, read-out: plant damage rating, Barnyardgrass)?
Answer: 0%

Question: What about the pest or weed control at 250 g/ha ([8]; 250 g ai/ha, read-out: Barnyardgrass damage rating (100=total damage to plant; 0=no damage to plant)) of the same compound?
Answer: 70%

Question: What about the pest or weed control at 15.625 g/ha ([9]; 15.625 g ai/ha, read-out: Velvetleaf damage rating (100=total damage to plant; 0=no damage to plant)) of the same compound?
Answer: 0%

Question: And the pest or weed control at 62.5 g/ha ([9]; 62.5 g ai/ha, 100=total damage to plant, 0=no damage to plant, read-out: plant damage rating, Velvetleaf)?
Answer: 0%

Question: And the pest or weed control at 250 g/ha ([9]; 250 g ai/ha, read-out: Velvetleaf damage rating (100=total damage to plant; 0=no damage to plant))?
Answer: 0%

Question: What about the pest or weed control at 15.625 g/ha ([10]; 15.625 g ai/ha, read-out: Pigweed, Redroot damage rating (100=total damage to plant; 0=no damage to plant)) of the same compound?
Answer: 0%

Question: And the pest or weed control at 62.5 g/ha ([10]; 62.5 g ai/ha, 100=total damage to plant, 0=no damage to plant, read-out: plant damage rating, Pigweed, Redroot)?
Answer: 0%

Question: What about the pest or weed control at 250 g/ha ([10]; 250 g ai/ha, read-out: Pigweed, Redroot damage rating (100=total damage to plant; 0=no damage to plant)) of the same compound?
Answer: 0%

Question: What about the pest or weed control at 15.625 g/ha ([11]; 15.625 g ai/ha, read-out: Morning-glory, Ivy-leaved damage rating (100=total damage to plant; 0=no damage to plant)) of the same compound?
Answer: 10%

Question: What about the pest or weed control at 62.5 g/ha ([11]; 62.5 g ai/ha, 100=total damage to plant, 0=no damage to plant, read-out: plant damage rating, Morningglory, Ivy-leaved) of the same compound?
Answer: 40%

Question: What about the pest or weed control at 250 g/ha ([11]; 250 g ai/ha, read-out: Morningglory, Ivy-leaved damage rating (100=total damage to plant; 0=no damage to plant)) of the same compound?
Answer: 50%

Question: And the plant injury at 15.625 g/ha (corn (Zea mays) [12]; 15.625 g ai/ha, read-out: Corn damage rating (100=total damage to plant; 0=no damage to plant))?
Answer: 0%

Question: What about the plant injury at 62.5 g/ha (corn (Zea mays) [12]; 62.5 g ai/ha, 100=total damage to plant, 0=no damage to plant, read-out: plant damage rating, Corn) of the same compound?
Answer: 10%

Question: What about the plant injury at 250 g/ha (corn (Zea mays) [12]; 250 g ai/ha, read-out: Corn damage rating (100=total damage to plant; 0=no damage to plant)) of the same compound?
Answer: 0%
